Measured values as given in patent US11440923B2, “Substituted macrocyclic indole derivatives” (Bayer Aktiengesellschaft, priority 2017, dated 2022).
Counter-ions that a name gives are not always drawn. Like-named read-outs stand apart in the source and are kept apart here.

How the values were obtained:
Type in all cases: cell-based
[1] = system: SUDHL5 cells; assay: Induction of caspase-3/7 activity in SUDHL5 cells (Assay 4)
Description: (§1) Induction of Caspase-3/7 Activity Upon Treatment of Cells with Selected Compounds
(§2) The BH3-domain of MCL-1 sequesters pro-apoptotic proteins, thereby inhibiting apoptosis. In contrast, MCL-1 inhibitors are expected to antagonize this effect leading to an increase in apoptosis, which can be determined by measuring the activity of caspase-3/7.
(§3) The activity of caspase-3/7 was determined in DLBCL (Diffuse large B-cell lymphoma) cell lines (SUDHL5 and SUDHL10) upon treatment with different compounds, using the Caspase-Glo® 3/7 reagent from Promega (G8092).
(§4) As a control, medium without cells was also added to the plate. Cells were incubated in a humidified incubator at 37° C. overnight.
(§5) Rim wells were excluded. The cells were incubated for 3 h hours in a humidified incubator at 37° C. After this incubation, 30 μL of Caspase-Glo® 3/7 reagent (Promega G8092) was added to each well using the Multidrop Combi Reagent Dispenser, followed by 1 h incubation at 37° C. Finally, luminescence was read at 0.1 ms, with a gain of 3000 using the PHERAstar FS microplate reader (BMG Labtech).
(§6) For the evaluation of the results, the background measured with “medium-only” was subtracted from all other values. Then, the values were normalized to DMSO-only treated cells (every value was divided by the mean of the DMSO control).

[2] = system: SUDHL10 cells; assay: Induction of caspase-3/7 activity in SUDHL10 cells (Assay 4)
Description: as §1, §2, §3, §4, §5, §6

[3] = system: SUDHL5 cells; assay: Induction of cytotoxicity in SUDHL5 cells (Assay 6); conditions: 5 h, CellTiter-Glo, read-out: Cytotox SUDHL5 IC50 (median)
Description: (§7) Assay 6 Induction of Cytotoxicity Upon Treatment of Cells with Selected Compounds
(§8) In principle, compounds that induce apoptosis will concomitantly induce cell cytotoxicity. Therefore, cytotoxicity assays were run in parallel in SUDHL5 and SUDHL10 cells.
(§9) As a control, medium without cells was also added to the plate. Cells were incubated in a humidified incubator at 37° C. overnight. […] Rim wells were excluded. The cells were incubated for 5 h hours in a humidified incubator at 37° C. After this incubation, 30 μL of CellTiter-Glo® Luminescent Cell Viability reagent (Promega, G7573) was added to each well using the Multidrop Combi Reagent Dispenser, followed by 15 min incubation on a shaker at room temperature. Finally, luminescence was read at 0.1 ms, with a gain of 3000 using the PHERAstar FS microplate reader (BMG Labtech).

[4] = system: SUDHL10 cells; assay: Induction of cytotoxicity in SUDHL10 cells (Assay 6); conditions: 5 h, CellTiter-Glo, read-out: Cytotox SUDHL10 IC50 (median)
Description: as §7, §8, §9

[5] = system: SUDHL5 cells; assay: Antiproliferation assay SUDHL5 (Assay 7)
Description: (§10) Assessment of the Anti-Proliferative Effect of Compounds in Different Cell Lines
(§11) The impact of compounds on the proliferation of different cell lines was assessed using the CellTiter-Glo® Luminescent Cell Viability reagent from Promega (G7573).
(§12) In parallel, cells were plated in a reference (day 0) plate for time zero determination. Cells were incubated in a humidified incubator at 37° C. overnight.
(§13) Rim wells were excluded. The cells were incubated for 72 h hours in a humidified incubator at 37° C. The day 0 plate was measured by adding 30 μL/well of CTG solution (CellTiter-Glo® Luminescent Cell Viability reagent, Promega G7573) to time zero wells in the reference plate followed by a 10 minutes incubation and luminescence reading at 0.1 ms. using the PHERAstar FS microplate reader (BMG Labtech).
(§14) After 72 h incubation, the treated plates were measured in the same way as the day 0 plate mentioned above. The Bella DRC Master Sheet was used to calculate IC50s, with CI=day 0 values and C0=DMSO control values.

[6] = system: AMO-1 cells; assay: Antiproliferation assay AMO-1 (Assay 7)
Description: as §10, §11, §12, §13, §14

[7] = system: HMC-1-8 cells; assay: Antiproliferation assay HMC-1-8 (Assay 7)
Description: as §10, §11, §12, §13, §14

[8] = caspase-3/7 induction, 3 h; read-out: Caspase SUDHL5 EC50 (median)
[9] = caspase-3/7 induction, 3 h; read-out: Caspase SUDHL10 EC50 (median)
[10] = 72 h, CellTiter-Glo; read-out: Antiproli SUDHL5 IC50 (median)
[11] = 72 h, CellTiter-Glo; read-out: Antiproli AMO-1 IC50 median
[12] = 72 h, CellTiter-Glo; read-out: Antiproli HMC-1-8 IC50 median
[13] = 72 h, CellTiter-Glo, read-out: Antiproli HMC-1-8 IC50 median

Row | Structure (SMILES) | EC50 [1, 8] | EC50 [2, 9] | IC50 [5, 10] | IC50 [3] | IC50 [6, 11] | IC50 [7, 12] | other results
1 | CCc1c2c(nn1C)C(CCC(C)(C)O)OCCCCn1c(C(=O)O)c(CCCOc3cccc4cc(F)ccc34)c3ccc(Cl)c-2c31 (single isomer, unassigned; enantiomer 2) [Example 76, (−)-4-chloro-3-ethyl-7-{3-[(6-fluoronaphthalen-1-yl)oxy]propyl}-15-(3-hydroxy-3-methylbutyl)-2-methyl-2,10,11,12,13,15-hexahydropyrazolo[4′,3′:9,10][1,6]oxazacycloundecino[8,7,6-hi]indole-8-carboxylic Acid—N-ethylethanamine Salt (Enantiomer 2)] | 3.3 µM | 5.8 µM | 4.6 µM | 3.6 µM | 3.87 µM | 13 µM | IC50 [4]: 5.2 µM
2 | CCc1c2c(nn1C)C1CCCCN1CCCCn1c(C(=O)O)c(CCCOc3cccc4ccccc34)c3ccc(Cl)c-2c31 (racemic) [Example 103, (rac)-18-chloro-1-ethyl-2-methyl-15-[3-(1-naphthyloxy)propyl]-2,3b,4,5,6,7,9,10,11,12-decahydropyrazolo[3′,4′:8,9]pyrido[1′,2′:6,7][1,6]diazacycloundecino[10,11,1-hi]indole-14-carboxylic Acid] | – | – | – | – | – | – | EC50 ([1]; Homo sapiens, SU-DHL-5, 3 h, caspase-3/7 induction, 3 h; read-out: Caspase SUDHL5 EC50 (median)): 1.4 µM; EC50 ([2]; Homo sapiens, SU-DHL10, 3 h, caspase-3/7 induction, 3 h; read-out: Caspase SUDHL10 EC50 (median)): 2.2 µM; IC50 ([3]; Homo sapiens, SU-DHL-5, 5 h): 1.1 µM; IC50 ([4]; Homo sapiens, SU-DHL10, 5 h): 1.7 µM; IC50 ([5]; Homo sapiens, SU-DHL-5, 72 h, 72 h, CellTiter-Glo; read-out: Antiproli SUDHL5 IC50 (median)): 2 µM; IC50 ([6]; Homo sapiens, AMO1, 72 h, 72 h, CellTiter-Glo; read-out: Antiproli AMO-1 IC50 median): 1.95 µM; IC50 [7, 13]: 19.8 µM
3 | CCc1c2c(nn1C)C(CCN1CCN(C)CC1)OCCCCn1c(C(=O)O)c(CCCOc3cccc4cc(F)ccc34)c3ccc(Cl)c-2c31 (single isomer, unassigned; stereoisomer 2) [Example 70, (+)-4-chloro-3-ethyl-7-{3-[(6-fluoronaphthalen-1-yl)oxy]propyl}-2-methyl-15-[2-(4-methylpiperazin-1-yl)ethyl]-2,10,11,12,13,15-hexahydropyrazolo[4′,3′:9,10][1,6]oxazacycloundecino[8,7,6-hi]indole-8-carboxylic Acid—N-ethylethanamine Salt (Stereoisomer 2)] | – | – | – | – | – | – | EC50 ([1]; read-out: Caspase SUDHL5 EC50 (median); caspase-3/7 induction, 3 h): 13 µM; EC50 ([2]; read-out: Caspase SUDHL10 EC50 (median); caspase-3/7 induction, 3 h): 14 µM; IC50 [4]: 20 µM; IC50 ([5]; read-out: Antiproli SUDHL5 IC50 (median); 72 h, CellTiter-Glo): 5 µM; IC50 ([6]; read-out: Antiproli AMO-1 IC50 median; 72 h, CellTiter-Glo): 12.5 µM; IC50 ([7]; read-out: Antiproli HMC-1-8 IC50 median; 72 h, CellTiter-Glo): 16.8 µM
4 | CCc1c2c(nn1C)C(CCN1CCOCC1)N(C)CCCCn1c(C(=O)O)c(CCCOc3cccc4cc(F)ccc34)c3ccc(Cl)c-2c31 (single isomer, unassigned) [Example 95, 4-chloro-3-ethyl-7-{3-[(6-fluoronaphthalen-1-yl)oxy]propyl}-2,14-dimethyl-15-[2-(morpholin-4-yl)ethyl]-10,11,12,13,14,15-hexahydro-2H-pyrazolo[3′,4′:8,9][1,6]diazacycloundecino[10,11,1-hi]indole-8-carboxylic Acid] | 1.5 µM | 3.5 µM | 2.3 µM | 2.2 µM | 4.3 µM | 8.22 µM | –
5 | CCc1c2c(nn1C)C(CCN1CCOCC1)N(C)CCCCn1c(C(=O)O)c(CCCOc3cccc4cc(F)ccc34)c3ccc(Cl)c-2c31 (centres unmarked) [Example 98, 4-chloro-3-ethyl-7-{3-[(6-fluoronaphthalen-1-yl)oxy]propyl}-2,14-dimethyl-15-[2-(morpholin-4-yl)ethyl]-10,11,12,13,14,15-hexahydro-2H-pyrazolo[3′,4′:8,9][1,6]diazacycloundecino[10,11,1-hi]indole-8-carboxylic Acid—N-ethylethanamine Salt] | 1 µM | 1.5 µM | 1.2 µM | 1.4 µM | 0.86 µM | 11.5 µM | –

More lines, main results first:

Row | EC50 [1, 8] | EC50 [2, 9] | IC50 [5, 10] | Structure (SMILES) | IC50 [3] | IC50 [6, 11] | IC50 [7, 12] | other results
6 | 0.02 µM | 0.023 µM | 0.02 µM | CCc1c2c(nn1C)C(CCN1CCOCC1)N(C)CCCCn1c(C(=O)O)c(CCCOc3cccc4cc(F)ccc34)c3ccc(Cl)c-2c31 (racemic) [Example 93, (rac)-4-chloro-3-ethyl-7-{3-[(6-fluoro-1-naphthyl)oxy]propyl}-2,14-dimethyl-(15-rac)-[2-(morpholin-4-yl)ethyl]-10,11,12,13,14,15-hexahydro-2H-pyrazolo[3′,4′:8,9][1,6]diazacycloundecino[10,11,1-hi]indole-8-carboxylic Acid] | 0.027 µM | 0.0589 µM | 0.558 µM | –
7 | 0.058 µM | 0.084 µM | 0.068 µM | CCc1c2c(nn1C)C(CCN1CCOCC1)OCC(F)(F)CCn1c(C(=O)O)c(CCCOc3cccc4cc(F)ccc34)c3ccc(Cl)c-2c31 (single isomer, unassigned; (+)) [Example 87, (+)-4-chloro-3-ethyl-12,12-difluoro-7-{3-[(6-fluoronaphthalen-1-yl)oxy]propyl}-2-methyl-15-[2-(morpholin-4-yl)ethyl]-2,10,11,12,13,15-hexahydropyrazolo[4′,3′:9,10][1,6]oxazacycloundecino[8,7,6-hi]indole-8-carboxylic Acid] | 0.061 µM | 0.0639 µM | 1.5 µM | –
8 | 0.076 µM | 0.059 µM | 0.071 µM | CCc1c2c(nn1C)C(CCN1CCOCC1)N(C)CCCCn1c(C(=O)O)c(CCCOc3cccc4ccccc34)c3ccc(Cl)c-2c31 (racemic) [Example 99, (rac)-4-chloro-3-ethyl-2,14-dimethyl-(15-rac)-[2-(morpholin-4-yl)ethyl]-7-{3-[(naphthalen-1-yl)oxy]propyl}-10,11,12,13,14,15-hexahydro-2H-pyrazolo[3′,4′:8,9][1,6]diazacycloundecino[10,11,1-hi]indole-8-carboxylic] | 0.1 µM | 0.0863 µM | – | IC50 [7, 13]: 1.86 µM
9 | 0.56 µM | 1.1 µM | 0.57 µM | CCc1c2c(nn1C)C(CCN1CCOCC1)OCC(F)(F)CCn1c(C(=O)O)c(CCCOc3cccc4cc(F)ccc34)c3ccc(Cl)c-2c31 (single isomer, unassigned; (-)) [Example 88, (−)-4-chloro-3-ethyl-12,12-difluoro-7-{3-[(6-fluoronaphthalen-1-yl)oxy]propyl}-2-methyl-15-[2-(morpholin-4-yl)ethyl]-2,10,11,12,13,15-hexahydropyrazolo[4′,3′:9,10][1,6]oxazacycloundecino[8,7,6-hi]indole-8-carboxylic Acid] | 0.76 µM | 1.35 µM | 3.12 µM | –
